The first test deals with AGS cells (KRAS^G12D). Kind of test: Detection of cell proliferation in vitro by MTT/MTS method (cell activity experiment). To be noted: AGS cells; MTT/MTS; 3 days of drug treatment; read-out: AGS IC50. The format is cell-based. Here is the method: The above cells were cultured in a complete medium containing 10% fetal bovine serum, 100 IU/mL penicillin and 100 jag/mL streptomycin, in the aseptic incubator with 95% relative humidity and 5% CO2 concentration.
2. Reagents: F12K, D-PBS, FBS, Penicillin Streptomycin, Tryple, MTT (5 mg/mL)
Appropriate amount of compound powder was weighed in a 1.5 mL centrifuge tube, then the corresponding volume of dimethyl sulfoxide (DMSO) was added to form a 20 mM reserve solution. The solution was packed separately and stored in a refrigerator at −20° C. away from light.
The cells were inoculated in a cell culture bottle, added an appropriate amount of complete medium, and cultured in a sterile incubator. When the degree of cell confluence reached more than 80%, subculture was carried out.
The adherent cells in logarithmic growth phase were digested by trypsin or the suspension cells were collected by centrifugation and counted. 90 μL cell suspension was inoculated into 96-well plate according to the cell inoculation density of 1000 cells per well, and 10 μL of 10-fold final concentration compound diluted by culture medium was added 24 hours later. Compared with the hole with the same volume of 5% DMSO as control, the final concentration of DMSO was 0.5%. After 3 days of drug treatment, the cell viability was detected by MTT. The specific methods are as follows: 10 μL MTT per well was added into the incubator for 4 hours, the supernatant was discarded and 150 μL DMSO was added to dissolve the crystal methylazan, and the absorbance of 490 nm was detected by enzyme labeling instrument, or 10 μL MITS per well was added to the incubator for 4 hours, and […] absorbance was detected directly by enzyme labeling instrument. GraphPad Prism 6 software makes dose-effect curve and calculates IC50.
Regarding `C#Cc1c(F)ccc2cc(O)cc(-c3ccc4c(N5C[C@H]6CC[C@@H](C5)[C@@H]6SC)nc(OC[C@@]56CCCN5C[C@H](F)C6)nc4c3F)c12` [Example 129, 5-ethynyl-6-fluoro-4-(8-fluoro-2-(((2R,7aS)-2-fluorotetrahydro-1H-pyrrolizin-7a(5H)-yl)methoxy)-4-((1R, 5S,8R)-8-(methylthio)-3-azabicyclo[3.2.1]octan-3-yl)quinazolin-7-yl)naphthalen-2-ol], the IC50 was > 2500 nM.
Still for that read-out and setting: the figure for `C#Cc1c(F)ccc2cc(O)cc(-c3ccc4c(N5C[C@H]6CC[C@@H](C5)[C@@H]6S(=O)(=O)C(F)(F)F)nc(OC[C@@]56CCCN5C[C@H](F)C6)nc4c3F)c12` [Example 132, 5-ethynyl-6-fluoro-4-(8-fluoro-2-(((2R,7aS)-2-fluorotetrahydro-1H-pyrrolizin-7a(5H)-yl)methoxy)-4-((1R,5S, 8R)-8-((trifluoromethyl)sulfonyl)-3-azabicyclo [3.2.1]octan-3-yl)quinazolin-7-yl) naphthalen-2-ol] is > 2500 nM.

Still in this test, the particulars now being: Homo sapiens, AGS, 72 h, AGS cells; MTT/MTS; 3 days of drug treatment; read-out: AGS IC50.
For the molecule `N#Cc1c(OC[C@@]23CCCN2C[C@H](F)C3)nc2cc(-c3cc(O)cc4ccc(F)c(F)c34)ccc2c1N1C[C@H]2CC[C@@H](C1)N2` [Example 175, 4-((1R,5S)-3,8-diazabicyclo[3.2.1]octan-3-yl)-7-(7,8-difluoro-3-hydroxynaphthalen-1-yl)-2-(((2R,7aS)-2-fluorotetrahydro-1H-pyrrolizin-7a(5H)-yl)methoxy)quinoline-3-carbonitrile], the 50% inhibitory concentration (IC50) was 1330 nM.
`CCn1cnc2cc(O)cc(-c3ncc4c(N5C[C@H]6CC[C@@H](C5)N6)nc(OC[C@@]56CCCN5C[C@H](F)C6)nc4c3F)c21` [Example 278, 7-(4-((1R,5S)-3,8-diazabicyclo[3.2.1]octan-3-yl)-8-fluoro-2-(((2R,7aS)-2-fluorotetrahydro-1H-pyrrolizin-7a(5H)-yl)methoxy)pyrido[4,3-d]pyrimidin-7-yl)-1-ethyl-1H-benzo[d]imidazol-5-ol]: the half-maximal inhibitory concentration (IC50) is > 10000 nM.
Same read-out and setting: the figure for `Cn1cnc2cc(O)cc(-c3ncc4c(N5C[C@H]6CC[C@@H](C5)N6)nc(OC[C@@]56CCCN5C[C@H](F)C6)nc4c3F)c21` [Example 279, 7-(4-((1R,5S)-3,8-diazabicyclo[3.2.1]octan-3-yl)-8-fluoro-2-(((2R,7aS)-2-fluorotetrahydro-1H-pyrrolizin-7a(5H)-yl)methoxy)pyrido[4,3-d]pyrimidin-7-yl)-1-methyl-1H-benzo[d]imidazol-5-ol] is > 10000 nM.
Same read-out and setting: the figure for `C#Cc1c(F)ccc2cc(O)cc(-c3ncc4c(N5CCC6(CCCN6)CC5)nc(OC[C@@]56CCCN5C[C@H](F)C6)nc4c3F)c12` [Example 47, 5-ethynyl-6-fluoro-4-(8-fluoro-2-(((2R,7aS)-2-fluorotetrahydro-1H-pyrrolizin-7a(5H)-yl)methoxy)-4-(1,8-diazaspiro[4.5]decan-8-yl)pyrido[4,3-d]pyrimidin-7-yl) naphthalen-2-ol] is 4540 nM; for `C#Cc1c(F)ccc2cc(O)cc(-c3ccc4c(N5C[C@H]6CC[C@@H](C5)N6)c(C#N)c(OC[C@@]56CCCN5C[C@H](F)C6)nc4c3F)c12` [Example 177, 4-((1R,5S)-3,8-diazabicyclo[3.2.1]octan-3-yl)-7-(8-ethynyl-7-fluoro-3-hydroxynaphthalen-1-yl)-8-fluoro-2-(((2R,7aS)-2-fluorotetrahydro-1H-pyrrolizin-7a(5H)-yl)methoxy)quinoline-3-carbonitrile] it is 530 nM; for `C#Cc1c(F)ccc2cc(O)cc(-c3ncc4c(N5C[C@H]6CC[C@@H](C5)N6)nc(OCC56CC5CN(C)C6)nc4c3F)c12` (stereo partly drawn) [Example 76, 4-(4-((1R,5S)-3,8-diazabicyclo[3.2.1]octan-3-yl)-8-fluoro-2-((3-methyl-3-azabicyclo [3.1.0]hexan-1-yl)methoxy)pyrido[4,3-d]pyrimidin-7-yl)-5-ethynyl-6-fluoronaphthalen-2-ol] it is > 2500 nM.
The same measure, in the same setting: as for `C#Cc1c(F)ccc2cc(O)cc(-c3c4c(c5c(N6C[C@H]7CC[C@@H](C6)N7)nc(OC[C@@]67CCCN6C[C@H](F)C7)nc5c3F)OCO4)c12` [Example 393, 4-(9-((1R,5S)-3,8-diazabicyclo[3.2.1]octan-3-yl)-5-fluoro-7-(((2R,7aS)-2-fluorotetrahydro-1H-pyrrolizin-7a(5H)-yl)methoxy)-[1,3]dioxolo[4,5-f]quinazolin-4-yl)-5-ethynyl-6-fluoronaphthalen-2-ol], the figure is 70 nM; as for `C[C@@H]1CCCc2cc(O)cc(-c3ncc4c(N5CC6CCC(C5)N6)nc(OC[C@@]56CCCN5C[C@H](F)C6)nc4c3F)c21` (single isomer, unassigned) [Example 225, (R)-4-(4-((1R,5S)-3,8-diazabicyclo[3.2.1]octan-3-yl)-8-fluoro-2-(((2R,7aS)-2-fluorotetrahydro-1H-pyrrolizin-7a(5H)-yl)methoxy)pyrido[4,3-d]pyrimidin-7-yl)-5-methyl-5,6,7,8-tetrahydronaphthalen-2-ol or (S)-4-(4-((1R,5S)-3,8-diazabicyclo[3.2.1]octan-3-yl)-8-fluoro-2-(((2R,7aS)-2-fluorotetrahydro-1H-pyrrolizin-7a(5H)-yl)methoxy)pyrido[4,3-d]pyrimidin-7-yl)-5-methyl-5,6,7,8-tetrahydronaphthalen-2-ol], 668 nM; as for `C#Cc1c(F)ccc2cc(O)cc(-c3ncc4c(-c5cn(C(=O)CO)cn5)nc(OC[C@@]56CCCN5C[C@H](F)C6)nc4c3F)c12` [Example 88, 1-(4-(7-(8-ethynyl-7-fluoro-3-hydroxynaphthalen-1-yl)-8-fluoro-2-(((2R, 7aS)-2-fluorotetrahydro-1H-pyrrolizin-7a(5H)-yl)methoxy)pyrido[4,3-d]pyrimidin-4-yl)-1H-imidazol-1-yl)-2-hydroxyethan-1-one], > 10000 nM.
`CCc1c(F)ccc2cc(O)cc(-c3ccc4c(N5C[C@H]6CC[C@@H](C5)C6(F)F)nc(OC[C@@]56CCCN5C[C@H](F)C6)nc4c3F)c12` [Example 120, 4-(4-((1R,5S)-8,8-difluoro-3-azabicyclo [3.2.1]octan-3-yl)-8-fluoro-2-(((2R,7aS)-2-fluorotetrahydro-1H-pyrrolizin-7a(5H)-yl)methoxy)quinazolin-7-yl)-5-ethyl-6-fluoronaphthalen-2-ol]: the IC50 was > 2500 nM.
On the same count and under the same terms, as for `CCC1CCCc2cc(O)cc(-c3ncc4c(N5C[C@H]6CC[C@@H](C5)N6)nc(OC[C@@]56CCCN5C[C@H](F)C6)nc4c3F)c21` (stereo partly drawn) [Example 227, 4-(4-((1R,5S)-3,8-diazabicyclo[3.2.1]octan-3-yl)-8-fluoro-2-(((2R,7aS)-2-fluorotetrahydro-1H-pyrrolizin-7a(5H)-yl)methoxy)pyrido[4,3-d]pyrimidin-7-yl)-5-ethyl-5,6,7,8-tetrahydronaphthalen-2-ol], the figure is 5 nM; as for `CCc1c(F)ccc2cc(O)cc(-c3cnc4c(N5C[C@H]6CC[C@@H](C5)N6)nc(OC[C@@]56CCCN5C[C@H](F)C6)nc4c3)c12` [Example 201, 4-(4-((1R,5S)-3,8-diazabicyclo[3.2.1]octan-3-yl)-2-(((2R,7aS)-2-fluorotetrahydro-1H-pyrrolizin-7a(5H)-yl)methoxy)pyrido[3,2-d]pyrimidin-7-yl)-5-ethyl-6-fluoronaphthalen-2-ol], > 2500 nM.
Same read-out and setting: as for `C#Cc1c(F)ccc2cc(O)cc(-c3ccc4c(N5CC6(CCN6)C5)nc(OC[C@@]56CCCN5C[C@H](F)C6)nc4c3F)c12` [Example 216, 5-ethynyl-6-fluoro-4-(8-fluoro-2-(((2R,7aS)-2-fluorotetrahydro-1H-pyrrolizin-7a(5H)-yl)methoxy)-4-(1,6-diazaspiro[3.3]heptan-6-yl)quinazolin-7-yl)naphthalen-2-ol], the figure is 3480 nM.
Still for that read-out and setting: as for `C#Cc1c(F)ccc2cc(O)cc(-c3ccc4c(C56CCN(CC5)CC6)nc(OC[C@@]56CCCN5C[C@H](F)C6)nc4c3F)c12` [Example 136, 5-ethynyl-6-fluoro-4-(8-fluoro-2-(((2R,7aS)-2-fluorotetrahydro-1H-pyrrolizin-7a(5H)-yl)methoxy)-4-(quinuclidin-4-yl)quinazolin-7-yl)naphthalen-2-ol], the figure is > 2500 nM.
Turning to `CCc1c(F)ccc2cc(O)cc(-c3ccc4c(N5C[C@H]6CC[C@@H](C5)N6)nc(OC[C@@]56CCCN5C[C@H](F)C6)nc4n3)c12` [Example 141, 4-(4-((1R,5S)-3,8-diazabicyclo[3.2.1]octan-3-yl)-2-(((2R,7aS)-2-fluorotetrahydro-1H-pyrrolizin-7a(5H)-yl)methoxy)pyrido[2,3-d]pyrimidin-7-yl)-5-ethyl-6-fluoronaphthalen-2-ol], the IC50 is > 2500 nM.
Same read-out and setting: the figure for `C#Cc1c(F)ccc2cc(O)cc(-c3ccc4c(N5CC6CCCNC6C5)nc(OC[C@@]56CCCN5C[C@H](F)C6)nc4c3F)c12` (stereo partly drawn) [Example 112, 5-ethynyl-6-fluoro-4-(8-fluoro-2-(((2R,7aS)-2-fluorotetrahydro-1H-pyrrolizin-7a(5H)-yl)methoxy)-4-(octahydro-6H-pyrrolo[3,4-b]pyridin-6-yl)quinazolin-7-yl) naphthalen-2-ol] is > 2500 nM.

Values taken from US20240300980A1, “HETEROCYCLIC COMPOUNDS AS KRAS INHIBITOR, AND PREPARATION THEREFOR AND USE THEREOF IN TREATMENT” (SHANGHAI KECHOW PHARMA, INC., priority 2021, published 2024).
